pIC50: −log10 of the molar value. Calls of active or inactive are those of the source. No cut-off for these calls is given here.
Tests used:
[1] = Displacement of [3H]IMI from nicotinic acetylcholine receptor in Myzus persicae (green peach aphid) whole body membrane after 90 min by filter binding assay
[2] = target: T1, Acetylcholine receptor subunit beta-like 2 (Drosophila melanogaster, UniProt P25162); assay: Displacement of [3H]IMI from nicotinic acetylcholine receptor in Drosophila melanogaster head membrane after 90 min by filter binding assay
T1 sequence (P25162 whole entry): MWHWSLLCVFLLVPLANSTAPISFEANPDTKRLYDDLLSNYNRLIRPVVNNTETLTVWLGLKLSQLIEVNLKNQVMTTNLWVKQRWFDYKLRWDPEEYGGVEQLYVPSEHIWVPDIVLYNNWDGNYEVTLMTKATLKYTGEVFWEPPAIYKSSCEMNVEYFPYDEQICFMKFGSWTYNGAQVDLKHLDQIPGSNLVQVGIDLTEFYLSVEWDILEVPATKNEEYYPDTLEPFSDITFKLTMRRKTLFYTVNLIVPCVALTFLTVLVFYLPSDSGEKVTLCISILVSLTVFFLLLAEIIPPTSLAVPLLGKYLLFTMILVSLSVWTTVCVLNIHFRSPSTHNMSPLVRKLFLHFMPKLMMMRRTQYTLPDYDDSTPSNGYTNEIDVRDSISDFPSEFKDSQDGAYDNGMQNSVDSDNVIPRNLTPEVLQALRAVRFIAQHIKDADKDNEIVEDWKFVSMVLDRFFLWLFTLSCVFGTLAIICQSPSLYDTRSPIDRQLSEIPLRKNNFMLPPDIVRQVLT

Myzus persicae = assay: Competitive inhibition of nicotinic acetylcholine receptor in Myzus persicae (green peach aphid) whole body membrane using [3H]IMI as substrate incubated for 5 min prior to substrate addition measured after 90 min by Sctachard plot analysis
[3] = target: T2, Nicotinic acetylcholine receptor alpha 5 subunit (Musca domestica, UniProt A9XFY4); assay: Displacement of [3H]IMI from nicotinic acetylcholine receptor in Musca domestica (house fly) head membrane after 90 min by filter binding assay
T2 sequence (A9XFY4 whole entry): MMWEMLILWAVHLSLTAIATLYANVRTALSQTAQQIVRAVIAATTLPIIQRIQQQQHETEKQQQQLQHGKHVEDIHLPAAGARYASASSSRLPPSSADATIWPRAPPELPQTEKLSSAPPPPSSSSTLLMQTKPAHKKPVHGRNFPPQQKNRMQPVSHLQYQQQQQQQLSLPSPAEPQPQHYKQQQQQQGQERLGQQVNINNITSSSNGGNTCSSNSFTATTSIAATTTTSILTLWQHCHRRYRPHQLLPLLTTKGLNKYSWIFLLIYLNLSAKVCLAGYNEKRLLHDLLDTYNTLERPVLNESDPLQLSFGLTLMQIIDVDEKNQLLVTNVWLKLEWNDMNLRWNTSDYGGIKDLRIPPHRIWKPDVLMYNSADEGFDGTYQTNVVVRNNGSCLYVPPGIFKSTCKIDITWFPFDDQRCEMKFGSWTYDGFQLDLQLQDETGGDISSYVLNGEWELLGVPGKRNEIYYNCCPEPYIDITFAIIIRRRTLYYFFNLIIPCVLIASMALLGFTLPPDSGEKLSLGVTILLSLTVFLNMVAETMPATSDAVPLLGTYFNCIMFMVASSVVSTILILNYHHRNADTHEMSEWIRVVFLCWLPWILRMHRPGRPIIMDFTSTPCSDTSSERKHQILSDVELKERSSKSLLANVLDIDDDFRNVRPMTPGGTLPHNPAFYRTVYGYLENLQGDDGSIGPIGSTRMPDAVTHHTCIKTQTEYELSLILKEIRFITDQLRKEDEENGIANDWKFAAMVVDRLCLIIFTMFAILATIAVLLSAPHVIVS

[4] = target: T3, Acetylcholine receptor subunit beta-like 2 (Drosophila melanogaster) (UniProt P25162); assay: Competitive inhibition of nicotinic acetylcholine receptor in Drosophila melanogaster head membrane using [3H]IMI as substrate incubated for 5 min prior to substrate addition measured after 90 min by Sctachard plot analysis
T3 sequence (whole entry): T1 sequence (P25162 whole entry)

CCN(Cc1cnc(Cl)s1)/C(=C/[N+](=O)[O-])NC
pIC50 [1]: 6.82
pIC50 [2]: 6.80

CN1CN(C)/C(=N\[N+](=O)[O-])N(Cc2cnc(Cl)s2)C1
pIC50 [1]: < 6.00
pIC50 [2]: < 6.00

CN1CN(C)/C(=N\[N+](=O)[O-])N(Cc2ccc(Cl)nc2)C1
pIC50 [1]: < 6.00
pIC50 [2]: < 6.00

O=[N+]([O-])C=C1NCCCS1
pIC50 [1]: 5.46
pIC50 [2]: 5.33

O=[N+]([O-])/N=C1\NCOCN1Cc1cnc(Cl)s1 [DESMETHYLTHIAMETHOXAM]
inhibition (Myzus persicae): Active
pIC50 [3]: 7.80
pIC50 [1]: 8.00
pIC50 [2]: 7.70
inhibition [4]: Active

CN/C(=N\[N+](=O)[O-])NCc1cnc(Cl)s1 [CLOTHIANIDINE]
inhibition (Myzus persicae): Active
pIC50 [3]: 8.74
pIC50 [1]: 8.04
pIC50 [2]: 8.66
inhibition [4]: Active

O=[N+]([O-])/N=C1\NCCN1Cc1ccc(Cl)nc1 [IMIDACLOPRID]
pIC50 [3]: 8.59
pIC50 [1]: 8.51
pIC50 [2]: 8.64

N#C/N=C1\SCCN1Cc1ccc(Cl)nc1 [THIACLOPRID]
pIC50 [1]: 8.47
pIC50 [2]: 8.12

CN/C(=N/CC1CCOC1)N[N+](=O)[O-] (stereo unspecified) [DINOTEFURAN]
pIC50 [2]: 5.30

C/C(=N\C#N)N(C)Cc1ccc(Cl)nc1 [ACETAMIPRID]
pIC50 [1]: 8.00
pIC50 [2]: 8.08

C/C(=N\C#N)N(C)Cc1cnc(Cl)s1
pIC50 [1]: 7.19
pIC50 [2]: 6.81

CCN(Cc1ccc(Cl)nc1)/C(=C/[N+](=O)[O-])NC [NITENPYRAM]
pIC50 [1]: 7.68
pIC50 [2]: 7.96

C/N=C(\NCc1ccc(Cl)nc1)N[N+](=O)[O-]
pIC50 [3]: 8.15
pIC50 [1]: 7.82
pIC50 [2]: 8.13

O=[N+]([O-])/N=C1\NCOCN1Cc1ccc(Cl)nc1
pIC50 [3]: 7.85
pIC50 [1]: 7.89
pIC50 [2]: 7.66

N#C/N=C1\SCCN1Cc1cnc(Cl)s1
pIC50 [1]: 7.25
pIC50 [2]: 7.03

O=[N+]([O-])/N=C1\NCCN1Cc1cnc(Cl)s1 [IMIDACLOTHIZ]
pIC50 [3]: 7.92
pIC50 [1]: 7.68
pIC50 [2]: 7.77

From ChEMBL document CHEMBL3045369 (J Neurochem, 2000)
